Experimental findings from patent US11542304B2, “Multimeric bicyclic peptide ligands” (BicycleTx Limited, priority 2018, dated 2023) are described below.

Series [1] concerns melanoma patient tumour samples. As to the kind of experiment: Ex vivo human tumour cell kill assay (3D spheroid culture). The note with it: 48 hours.
Method: Two frozen, dissociated melanoma patient tumour samples were purchased from Folio Conversant. Cells were thawed quickly at 37° C. and pipetted into 10 mL of Wash Medium [DMEM/F12+1× Penicillin/Streptomycin+50 μg/mL Gentamycin+100 μg/mL G418+100 μg/mL Hygromycin+1× Insulin-Transferrin-Selenium (ITS)+10 mM HEPES] with 1 mg/mL DNaseI added fresh. Cell counts were performed using a haemocytometer and a 1:2 dilution with 0.04% Trypan blue. Cells were spun down and resuspended in Growth Medium [EmbryoMax DMEM+10% heat-inactivated FBS+1× Penicillin/Streptomycin+50 μg/mL Gentamycin+1× GlutaMAX+1 mM Sodium pyruvate+1×ITS+0.4% BSA+4.5 g/L glucose+2.3 g/L sodium bicarbonate+10 mM HEPES+10 ng/mL basic fibroblast growth factor (bFGF)+20 ng/mL epidermal growth factor (EGF)] at 5×10^5 cells/mL. Cells were magnetized as described in the N3D Biosciences manufacturer's protocol. Briefly, NanoShuttle (NS) is added at 1 μL to 1×10^4 cells and mixed in by pipetting. […] Flow cytometry panels used in this experiment analysed the number of lymphocytes and tumour cells present on Days 0 and 2. Tumour cell killing was determined by the decrease in the number of CD45 negative cells in the treated wells versus the untreated control (FIG. 12)—significance was calculated using a 2-way ANOVA.
The subject of series [2] is Pan T-cells (isolated from human PBMCs). Kind of series: T-cell cytokine release assay. Format: cell-based. The note with it: anti-CD3 stimulated T cells, 48 hours; FIG. 14. On the procedure: Healthy human buffy coat was purchased from the Sylvan N. Goldman Oklahoma Blood Institute and shipped fresh. Peripheral blood mononuclear cells (PBMCs) were isolated by Ficoll density gradient centrifugation. Red blood cells were lysed with ACK (Ammonium-Chloride-Potassium) lysis buffer. Pan T-cells were then isolated from total PBMCs using negative magnetic bead selection (Miltenyi MACS human Pan-T cell isolation kit). Pan T-cells were then plated on anti-CD3 coated 96-well plates (0.5 μg/mL) in culture media (RPMI1640 with 10% FBS) plus or minus compounds. Supernatant from cultures was collected after 24 and 48 hours. Cytokine [i.e., interleukin-2 (IL-2), interferon gamma (IFNγ)] release in supernatant was measured by HTRF assay (CisBio) according to the kit's instructions. HTRF assay plates were read on a Clariostar plate reader (BMG Labtech) at 665 nm and 620 nm. Data was analyzed and extrapolated to a standard curve according to the HTRF kit instruction in Prism and Excel. Cytokine release fold change was calculated by dividing the pg/mL of cytokine detected by background cytokine released (CD3 stimulation alone). Data was graphed in Prism as the mean of replicates with standard deviation error bars.

In series [3] the target is T1, CD137 (Homo sapiens, UniProt Q07011). Kind of series: CD137 reporter cell activity washout assay. Type of series: cell-based. The note with it: 10 nM, exposure 30, 60 or 120 minutes, total 6 hours; FIG. 13. Details: host or cells: Jurkat cells. How it is done:
Jurkat cells engineered to overexpress CD137 and express a luciferase gene under the NF-κB promoter were purchased from Promega. The reporter cells were incubated with 10 nM of CD137 agonists for the indicated times at 37° C. in RPMI1640 media with 1% FBS. After either 30, 60, or 120 minutes, cells were washed in an excess of culture media and resuspended in 75 μL of fresh media. A no washout condition was also included. All washout conditions were performed in duplicate. Cells then continued to incubate for a total of 6 hours (an additional 5.5, 5, or 4 hours respective to exposure times). After incubation, 75 μL of Bio-Glo reagent (Promega) was added to each well and allowed to equilibrate for 10 minutes at room temperature. Luminescence was read on the Clariostar plate reader (BMG LabTech). Fold induction was calculated by dividing the luminescence signal by background wells (reporter cells with no agonist added). The percent of the maximum fold induction was calculated by dividing the fold induction of the washout time by the fold induction of the no washout condition and multiplying by 100.

For series [4], the system named is MC38 syngeneic tumors. Kind of series: In vivo efficacy in MC38 syngeneic tumors in C57BL/6J B-h4-1BB humanized mice. As to conditions: 20 or 30 mg/kg i.v. QAD × 6; compared to CD137 monoclonal antibody agonist; FIG. 7. On the procedure: The MC38 murine colon carcinoma cell line was purchased from Shunran Shanghai Biological Technology Co., Ltd. The cells will be maintained in vitro as monolayer culture in Dulbecco's Modified Eagle's medium (DMEM) supplemented with 10% heat inactivated fetal calf serum, 100 U/mL penicillin and 100 μg/mL streptomycin at 37° C. in an atmosphere of 5% CO2. The tumor cells will be routinely subcultured twice weekly by trypsin-EDTA treatment. Cells growing in an exponential growth phase will be harvested and counted for tumor inoculation. 6-8 week old female C57BL/6J B-h4-1BB humanized mice were subcutaneously injected (in the flank) with MC38 tumor cells (5×10^5) with 0.1 mL PBS for tumor development. Tumor-bearing animals were randomly enrolled into six study groups when the mean tumor size reached approximately 113 mm^3 (Study 1) or 107 mm^3 (Study 2). The test and positive control articles were administrated to the tumor-bearing mice according to predetermined regimens as shown below.
Test articles were formulated in aqueous vehicle (25 mM Histidine, 10% sucrose pH=7) and administered intravenously or intraperitoneally. CD137 monoclonal antibody agonist was administered by intraperitoneal injection in 0.9% saline.
Tumor volume was measured three times a week in two dimensions using a caliper, and the volume was expressed in mm3 using the formula: V=0.5a×b2 where a and b were the long and short diameters of the tumor, respectively. Results are represented by mean and the standard deviation (Mean±SD).
In study 2, mice were sacrificed 21 days after treatment initiation and tumors were harvested for T-cell analysis by flow cytometry. Tumor were cut into small pieces and filtered through a 70 micrometer filter. Lymphocytes were isolated using Histopaque 1083 and resuspended in RPMI 1640 supplemented with 10% fetal bovine serum. Lymphocytes were stained with a cell viability dye (Zombie NIR, Biolegend, #423106) and a panel of antibodies including anti-mouse CD45 (Biolegend, #103138), anti-mouse CD3 (Biolegend, #100328), anti-mouse CD4 (Biolegend, #100438), anti-mouse CD8 (Biolegend, #100759). Stained cells were analysed by Attune N×T Flow Cytometer. T-cell results are expressed as % of CD3+ cells among CD45+ cells. CD8+ T-cell results are expressed as % of CD8+ cells among CD45+CD3+ cells. CD4+ T-cell results are expressed as % of CD4+ cells among CD45+CD3+ cells. Results are represented by mean and the standard deviation (Mean±SD) and the individual values.
Statistical analysis: Data was analyzed using 2way ANOVA or ordinary One-way ANOVA with Dunnett's test for multiple comparisons, and P<0.05 was considered to be statistically significant. Both statistical analysis and biological observations are taken into consideration. ***p<0.001, **p<0.01, *p<0.05.

Series [5] concerns the target T1, CD137. As to the kind of experiment: CD137 Promega reporter cell activity assay (NF-κB luciferase in Jurkat cells).
Method: CD137 binding multimers were evaluated for CD137 using a Reporter cell activity assay that uses NF-κB luciferase luminescence as a read-out of CD137 activation in Jurkat cells. […] Samples were diluted at concentration expected to give the maximum fold induction and then titrated down in 1/3 dilution series or 1/10 dilution series in a sterile 96 well-plate. […] 50 μl cells were added per well to white cell culture plates.
Cells were co-incubated together with agonists for 6 h at 37° C., 5% CO2. After 6 h Bio-Glo™ was thawed and the assay developed at room-temperature. 75 ul Bio-Glo™ was added per well and incubated for 5-10 min. Luciferase signal was read on a Pherastar plate-reader using MARS program. Data was analysed by transforming the data to x=log (X), then plotting log (agonist) vs. response variable slope (4 parameters) to calculate EC50 values.
A short description of series [6]: Pharmacokinetics of Bicycle multimers in CD-1 mice. As to conditions: 5 mg/kg IV, male CD-1 mice; FIGS. 5A and 5B.
Method: Male CD-1 mice were dosed with 5 mg/kg of each Bicycle multimer formulated in 25 mM Histidine HCl, 10% sucrose pH 7 via tail vein injection. Serial bleeding (about 80 μL blood/time point) was performed via submandibular or saphenous vein at each time point. All blood samples were immediately transferred into prechilled microcentrifuge tubes containing 2 μL K2-EDTA (0.5M) as anti-coagulant and placed on wet ice. Blood samples were immediately processed for plasma by centrifugation at approximately 4° C., 3000 g. The precipitant including internal standard was immediately added into the plasma, mixed well and centrifuged at 12,000 rpm, 4° C. for 10 minutes. The supernatant was transferred into pre-labeled polypropylene microcentrifuge tubes, and then quick-frozen over dry ice. The samples were stored at 70° C. or below as needed until analysis. 7.5 μL of the supernatant samples were directly injected for LC-MS/MS analysis using an Orbitrap Q Exactive in positive ion mode to determine the concentrations of Bicycle multimer. Plasma concentration versus time data were analyzed by non-compartmental approaches using the Phoenix WinNonlin 6.3 software program. C0, Cl, Vdss, T1/2, AUC(0-last), AUC(0-inf), MRT(0-last), MRT(0-inf) and graphs of plasma concentration versus time profile were reported.

T1 sequence (Q07011 24-255): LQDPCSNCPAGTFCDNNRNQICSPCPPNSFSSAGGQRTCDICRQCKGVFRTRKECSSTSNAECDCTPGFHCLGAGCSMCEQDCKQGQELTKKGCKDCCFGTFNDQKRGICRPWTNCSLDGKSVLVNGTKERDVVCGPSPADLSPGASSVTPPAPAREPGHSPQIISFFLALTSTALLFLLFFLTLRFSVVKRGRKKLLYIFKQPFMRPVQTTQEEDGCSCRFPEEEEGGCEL

As to `CCCC[C@@H]1NC(=O)[C@H](Cc2ccc(O)cc2)NC(=O)[C@@H]2CCCN2C(=O)[C@H](CC(=O)O)NC(=O)[C@H](C)NC(=O)[C@H](Cc2ccccc2)NC(=O)[C@@H]2CSCCC(=O)N3CN(CN(C3)C(=O)CCSC[C@@H](C(=O)N[C@@H](C)C(N)=O)NC1=O)C(=O)CCSC[C@H](NC(=O)[C@H](C)NC(C)=O)C(=O)N[C@@H]([C@@H](C)CC)C(=O)N[C@@H](CCC(=O)O)C(=O)N[C@@H](CCCCNC(=O)CCc1cn(CCOCCOCCOCCOCCOCCOCCOCCOCCOCCOCCOCCOCCOCCOCCOCCOCCOCCOCCOCCOCCOCCOCCOCCNC(=O)CCOCC(COCCC(=O)NCCOCCOCCOCCOCCOCCOCCOCCOCCOCCOCCOCCOCCOCCOCCOCCOCCOCCOCCOCCOCCOCCOCCOCCn3cc(CCC(=O)NCCCC[C@@H]4NC(=O)[C@H](CCC(=O)O)NC(=O)[C@H]([C@@H](C)CC)NC(=O)[C@@H](NC(=O)[C@H](C)NC(C)=O)CSCCC(=O)N5CN6CN(C5)C(=O)CCSC[C@H](NC(=O)[C@H](Cc5ccc(O)cc5)NC(=O)[C@H](CCC(N)=O)NC(=O)CNC4=O)C(=O)N[C@@H](Cc4ccccc4)C(=O)N[C@@H](C)C(=O)N[C@@H](CC(=O)O)C(=O)N4CCC[C@H]4C(=O)N[C@@H](Cc4ccc(O)cc4)C(=O)N[C@@H](CCCC)C(=O)N[C@H](C(=O)N[C@@H](C)C(N)=O)CSCCC6=O)nn3)(COCCC(=O)NCCOCCOCCOCCOCCOCCOCCOCCOCCOCCOCCOCCOCCOCCOCCOCCOCCOCCOCCOCCOCCOCCOCCOCCn3cc(CCC(=O)NCCCC[C@@H]4NC(=O)[C@H](CCC(=O)O)NC(=O)[C@H]([C@@H](C)CC)NC(=O)[C@@H](NC(=O)[C@H](C)NC(C)=O)CSCCC(=O)N5CN6CN(C5)C(=O)CCSC[C@H](NC(=O)[C@H](Cc5ccc(O)cc5)NC(=O)[C@H](CCC(N)=O)NC(=O)CNC4=O)C(=O)N[C@@H](Cc4ccccc4)C(=O)N[C@@H](C)C(=O)N[C@@H](CC(=O)O)C(=O)N4CCC[C@H]4C(=O)N[C@@H](Cc4ccc(O)cc4)C(=O)N[C@@H](CCCC)C(=O)N[C@H](C(=O)N[C@@H](C)C(N)=O)CSCCC6=O)nn3)COCCC(=O)NCCOCCOCCOCCOCCOCCOCCOCCOCCOCCOCCOCCOCCOCCOCCOCCOCCOCCOCCOCCOCCOCCOCCOCCn3cc(CCC(=O)NCCCC[C@@H]4NC(=O)[C@H](CCC(=O)O)NC(=O)[C@H]([C@@H](C)CC)NC(=O)[C@@H](NC(=O)[C@H](C)NC(C)=O)CSCCC(=O)N5CN6CN(C5)C(=O)CCSC[C@H](NC(=O)[C@H](Cc5ccc(O)cc5)NC(=O)[C@H](CCC(N)=O)NC(=O)CNC4=O)C(=O)N[C@@H](Cc4ccccc4)C(=O)N[C@@H](C)C(=O)N[C@@H](CC(=O)O)C(=O)N4CCC[C@H]4C(=O)N[C@@H](Cc4ccc(O)cc4)C(=O)N[C@@H](CCCC)C(=O)N[C@H](C(=O)N[C@@H](C)C(N)=O)CSCCC6=O)nn3)nn1)C(=O)NCC(=O)N[C@@H](CCC(N)=O)C(=O)N[C@@H](Cc1ccc(O)cc1)C(=O)N2` [BCY7838], the “lymphocyte numbers (live CD45 positive cells)” value in series [1] (FIG. 12B) is reported as “no significant difference between treatments on lymphocyte numbers”. The “tumour cell death (live CD45 negative cells)” value in series [1] (in one melanoma patient sample, but not the other, FIG. 12A) was “significant tumour cell death”. Moreover, the “pro-inflammatory cytokine (IL-2, IFNγ) secretion by T-cells” value in series [2] is “secrete pro-inflammatory cytokines”. Further, in series [3], the “cell activity after washout” value is “maintain cell activity after washout”. The “anti-tumor activity (tumor volume), Study 1” value in series [4] is “elicits a range of anti-tumor activities”. Moreover, the “Average Fold EC50 Improvement relative to CD137L” value in series [5] (Average EC50 for CD137L = 14.2 nM) is given as 0.73. For the same compound, the “Average Relative Fold Induction relative to CD137L” value in series [5] (Average fold induction for CD137L = 4.0) was 2.19. Moreover, the “systemic elimination (plasma concentration after IV dosing)” value in series [6] is recorded as “retain the property of rapid systemic elimination”.
